The source made the active and inactive calls. How the calls were made is not given here.
System: GENE-TOX genotoxicity assays, various organisms and cells
Experiment: GENE-TOX mutagenicity studies
Conditions: for call: Assay Type: In vivo carcinogenicity studies
[1] = Species/Cell Type: Drosophila melanogaster, Assay Type: Sex-linked recessive lethal gene mutation, Assay Code: SRL+, Evaluation Type: Evaluation A (Pre-1980)
[2] = Species/Cell Type: Escherichia coli polA (W3119 vs P3478), Assay Type: Rec-assay, DNA effects (bacterial DNA repair), Assay Code: RE1T, Evaluation Type: Evaluation A (Pre-1980)
[3] = Species/Cell Type: Nonhuman, Assay Code: CCG+L, Evaluation Type: Evaluation A (Pre-1980)
[4] = Species/Cell Type: Salmonella typhimurium (one or more of the five standard strains: TA98, TA100, TA1535, TA1537, and TA1538), Assay Type: Histidine reverse gene mutation, Ames assay, Assay Code: SALT, Evaluation Type: Evaluation A (Pre-1980)
[5] = Species/Cell Type: Salmonella typhimurium, Assay Type: Forward and reverse gene mutation, host-mediated assay, Assay Code: HMA-, Evaluation Type: Evaluation A (Pre-1980)
[6] = Species/Cell Type: Salmonella typhimurium (one or more of the five standard strains: TA98, TA100, TA1535, TA1537, and TA1538), Assay Type: Histidine reverse gene mutation, Ames assay, Assay Code: SAL+*, Activation: With metabolic activation, Evaluation Type: Evaluation A (Pre-1980)
[7] = Species/Cell Type: Bacillus subtilis (H17 vs M45), Assay Type: Rec-assay, spot test, DNA effects (bacterial DNA repair), Assay Code: REW+, Evaluation Type: Evaluation A (Pre-1980)
[8] = Species/Cell Type: Salmonella typhimurium (one or more of the five standard strains: TA98, TA100, TA1535, TA1537, and TA1538), Assay Type: Histidine reverse gene mutation, Ames assay, Assay Code: SAL-, Evaluation Type: Evaluation A (Pre-1980)
[9] = Species/Cell Type: Drosophila melanogaster, Assay Type: Sex-linked recessive lethal gene mutation, Assay Code: SRLT, Evaluation Type: Evaluation A (Pre-1980)

Structure (SMILES): O=C(O)C(c1ccc(Cl)cc1)c1ccc(Cl)cc1
- mutagenic call [1]: active; positive
- mutagenic call (Species/Cell Type: Nonhuman, Assay Type: Chromosome aberrations in vitro, Assay Code: CY&-, Evaluation Type: Evaluation A (Pre-1980)): inactive; negative
- mutagenic call (Species/Cell Type: Salmonella typhimurium, Serratia marcesens, Assay Type: Forward and reverse gene mutation, host-mediated assay, Assay Code: HM2-, Evaluation Type: Evaluation A (Pre-1980)): inactive; negative

Structure (SMILES): CCCCNP(=O)(N1CC1)N1CC1
- mutagenic call [1]: active; positive
- mutagenic call (Species/Cell Type: Nonhuman, Assay Type: Chromosome aberrations in vitro, Assay Code: CY&+, Evaluation Type: Evaluation A (Pre-1980)): active; positive
- mutagenic call (Species/Cell Type: Schizosaccharomyces pombe, Assay Type: Reverse gene mutation, Assay Code: YEZ+, Evaluation Type: Evaluation A (Pre-1980)): active; positive

Structure (SMILES): COc1cc2c(c3oc(=O)c4c(c13)CCC4=O)[C@@H]1CCO[C@@H]1O2
- mutagenic call (Species/Cell Type: Bacillus subtilis (H17 vs M45), Assay Type: Rec-assay, spot test, DNA effects (bacterial DNA repair), Assay Code: REWT, Evaluation Type: Evaluation A (Pre-1980)): no conclusion
- mutagenic call (Species/Cell Type: Chinese hamster lung (V79) cells, Assay Type: Forward gene mutation at the HPRT or ouabain locus, Assay Code: V79+, Evaluation Type: Evaluation A (Pre-1980)): active; positive
- mutagenic call (Species/Cell Type: Escherichia coli polA (W3110 vs P3478), Assay Type: Rec-assay, DNA effects (bacterial DNA repair), Assay Code: RE2-, Evaluation Type: Evaluation A (Pre-1980)): inactive; negative
- mutagenic call [2]: no conclusion
- mutagenic call (Species/Cell Type: Human diploid fibroblasts, Assay Type: Unscheduled DNA synthesis (UDS) in vitro, DNA effects, Assay Code: UDH-*, Activation: With metabolic activation, Evaluation Type: Evaluation A (Pre-1980)): inactive; negative
- call [3]: active; positive
- mutagenic call (Species/Cell Type: Nonhuman, Assay Type: Sister-chromatid exchange (SCE) in vitro, Assay Code: SC2+D*, Activation: With metabolic activation, Dose Response: With dose response, Evaluation Type: Evaluation B (Post-1980)): active; positive
- mutagenic call (Species/Cell Type: Rat primary hepatocytes, Assay Type: Unscheduled DNA synthesis (UDS) in vitro, DNA effects, Assay Code: UDP-, Evaluation Type: Evaluation A (Pre-1980)): inactive; negative
- mutagenic call (Species/Cell Type: Saccharomyces cerevisiae, Assay Type: Mitotic recombination or gene conversion, Assay Code: YEH-, Evaluation Type: Evaluation A (Pre-1980)): inactive; negative
- mutagenic call [4]: no conclusion
- mutagenic call [5]: inactive; negative
- mutagenic call (Species/Cell Type: Syrian hamster embryo (SHE) cells, Assay Type: Cell transformation, clonal assay, Assay Code: CTC+, Evaluation Type: Evaluation A (Pre-1980)): active; positive

Structure (SMILES): COc1cc2c(c3oc(=O)c4c(c13)C(O)CC4O)[C@@H]1C=CO[C@@H]1O2 (stereo not given in full)
- mutagenic call [6]: active; positive

Structure (SMILES): CC(=O)OCCBr
- mutagenic call (Species/Cell Type: Escherichia coli polA (W3119 vs P3478), Assay Type: Rec-assay, DNA effects (bacterial DNA repair), Assay Code: RE1+, Evaluation Type: Evaluation A (Pre-1980)): active; positive

Structure (SMILES): CC(=O)O[C@H]1[C@H]2O[C@H]2C2=CC(=O)[C@]3(C[C@]2(C)[C@H]1C)O[C@]3(C)C=O
- mutagenic call [7]: active; positive
- mutagenic call (Species/Cell Type: Neurospora crassa, Assay Type: Reverse gene mutation, Assay Code: NER+, Evaluation Type: Evaluation A (Pre-1980)): active; positive
- mutagenic call (Species/Cell Type: Nonhuman, Assay Type: Sister-chromatid exchange (SCE) in vitro, Assay Code: SC2T, Evaluation Type: Evaluation B (Post-1980)): no conclusion
- mutagenic call (Species/Cell Type: Saccharomyces cerevisiae, Assay Type: Mitotic recombination or gene conversion, Assay Code: YEC+/-*, Activation: With metabolic activation, Evaluation Type: Evaluation A (Pre-1980)): inactive; positive without activation, negative with activation
- mutagenic call (Species/Cell Type: Saccharomyces cerevisiae, Assay Type: Mitotic recombination or gene conversion, Assay Code: YEH+, Evaluation Type: Evaluation A (Pre-1980)): active; positive
- mutagenic call (Species/Cell Type: Saccharomyces cerevisiae, Assay Type: Reverse gene mutation, Assay Code: YER+, Evaluation Type: Evaluation A (Pre-1980)): active; positive
- mutagenic call [4]: no conclusion

Structure (SMILES): O=[N+]([O-])c1cccc(O)c1
- mutagenic call (Species/Cell Type: Allium cepa, Assay Type: Chromosome aberrations, Assay Code: ALC-, Evaluation Type: Evaluation A (Pre-1980)): inactive; negative

Structure (SMILES): [Cl][Ge]([Cl])([Cl])[Cl]
- mutagenic call [7]: active; positive

Structure (SMILES): c1cc2cc3c4c(ccc5cc6c(c1CCC6)c2c54)CCC3
- mutagenic call [6]: active; positive

Structure (SMILES): COC(=O)c1ccc(C(=O)OC)cc1
- call (Species/Cell Type: Nonhuman, Assay Code: CCG-, Evaluation Type: Evaluation A (Pre-1980)): inactive; negative
- mutagenic call (Species/Cell Type: Syrian hamster embryo (SA7/SHE) cells, Assay Type: Cell transformation, viral enhanced, Assay Code: CT7-, Evaluation Type: Evaluation A (Pre-1980)): inactive; negative

Structure (SMILES): COc1ccc2ccc(=O)oc2c1
- mutagenic call (Species/Cell Type: Allium cepa, Assay Type: Chromosome aberrations, Assay Code: ALC+D, Dose Response: With dose response, Evaluation Type: Evaluation A (Pre-1980)): active; positive

Structure (SMILES): CC[C@@]1(O)C[C@H](O[C@H]2C[C@H](NC)[C@H](O)[C@H](C)O2)c2c(cc3c(c2O)C(=O)c2c(O)cccc2C3=O)[C@H]1C(=O)OC
- mutagenic call [4]: no conclusion

Structure (SMILES): O=C(OCC1=CCN2CC[C@@H](OC(=O)c3ccc(Cl)cc3)[C@@H]12)c1ccc(Cl)cc1
- mutagenic call (Species/Cell Type: Allium cepa, Assay Type: Chromosome aberrations, Assay Code: ALC+, Evaluation Type: Evaluation A (Pre-1980)): active; positive

Structure (SMILES): CC1C(c2ccccc2)OCCN1N=O (stereo not given)
- mutagenic call [5]: inactive; negative

Structure (SMILES): C=COC(C)=O
- mutagenic call (Species/Cell Type: Human lymphocytes, Assay Type: Sister-chromatid exchange (SCE) in vitro, Assay Code: SCL+D, Dose Response: With dose response, Evaluation Type: Evaluation B (Post-1980)): active; positive
- mutagenic call (Species/Cell Type: Human, Assay Type: Sister-chromatid exchange (SCE) in vitro, Assay Code: SC1+D, Dose Response: With dose response, Evaluation Type: Evaluation B (Post-1980)): active; positive
- mutagenic call (Species/Cell Type: Mammalian polychromatic erythrocytes, Assay Type: Micronucleus test, chromosome aberrations, Assay Code: MNT+, Evaluation Type: Evaluation B (Post-1980)): active; positive
- call [3]: active; positive
- mutagenic call (Species/Cell Type: Nonhuman, Assay Type: Sister-chromatid exchange (SCE) in vitro, Assay Code: SC2+D, Dose Response: With dose response, Evaluation Type: Evaluation B (Post-1980)): active; positive
- mutagenic call [8]: inactive; negative
- mutagenic call (Species/Cell Type: Syrian hamster embryo (SA7/SHE) cells, Assay Type: Cell transformation, viral enhanced, Assay Code: CT7+, Evaluation Type: Evaluation A (Pre-1980)): active; positive

Structure (SMILES): C#Cc1cn([C@H]2C[C@H](O)[C@@H](CO)O2)c(=O)[nH]c1=O
- mutagenic call (Species/Cell Type: Human lymphocytes, Assay Type: Sister-chromatid exchange (SCE) in vitro, Assay Code: SCL+, Evaluation Type: Evaluation B (Post-1980)): active; positive
- mutagenic call (Species/Cell Type: Human, Assay Type: Sister-chromatid exchange (SCE) in vitro, Assay Code: SC1+, Evaluation Type: Evaluation B (Post-1980)): active; positive

Structure (SMILES): O=c1cc[nH]c(=S)[nH]1
- mutagenic call [9]: no conclusion

Structure (SMILES): O=[N+]([O-])c1ccc(/C=N\O)o1
- mutagenic call (Species/Cell Type: Escherichia coli WP2, Assay Type: Tryptophan reverse gene mutation, Assay Code: WP2-, Evaluation Type: Evaluation A (Pre-1980)): inactive; negative
- mutagenic call (Species/Cell Type: Escherichia coli WP2 UVRA, Assay Type: Tryptophan reverse gene mutation, Assay Code: WPU+D, Dose Response: With dose response, Evaluation Type: Evaluation A (Pre-1980)): active; positive
- mutagenic call (Species/Cell Type: Salmonella typhimurium (one or more of the five standard strains: TA98, TA100, TA1535, TA1537, and TA1538), Assay Type: Histidine reverse gene mutation, Ames assay, Assay Code: SAL+, Evaluation Type: Evaluation A (Pre-1980)): active; positive

Structure (SMILES): CN(C)N=Nc1cccnc1
- mutagenic call [1]: active; positive
- mutagenic call (Species/Cell Type: Mammalian polychromatic erythrocytes, Assay Type: Micronucleus test, chromosome aberrations, Assay Code: MNT+, Evaluation Type: Evaluation A (Pre-1980)): active; positive
- mutagenic call (Species/Cell Type: Saccharomyces cerevisiae, Assay Type: Forward and reverse gene mutation, mitotic recombination and gene conversion, host-mediated assay, Assay Code: HME+, Evaluation Type: Evaluation A (Pre-1980)): active; positive
- mutagenic call (Species/Cell Type: Saccharomyces cerevisiae, Assay Type: Mitotic recombination or gene conversion, Assay Code: YEC+, Evaluation Type: Evaluation A (Pre-1980)): active; positive

Structure (SMILES): C#C[C@]1(O)CC[C@H]2[C@@H]3CCc4cc(CC)ccc4[C@H]3CC[C@@]21C (tested in a mixture with another compound)
- mutagenic call (Species/Cell Type: Rodents, Sex: Male, Assay Type: Dominant lethal test, Assay Code: DLTT, Evaluation Type: Evaluation A (Pre-1980)): no conclusion

Structure (SMILES): Clc1cccc(Br)c1
- mutagenic call [8]: inactive; negative

Structure (SMILES): Nc1nc2nc[nH]c2c(=O)[nH]1
- mutagenic call [9]: no conclusion
- mutagenic call [2]: no conclusion

Structure (SMILES): CCN(CCO)CCNc1ccc(CO)c2sc3cc(Cl)ccc3c(=O)c12
- mutagenic call (Species/Cell Type: Mouse lymphoma (L5178Y) cells, Assay Type: Forward gene mutation at the thymidine kinase (TK) locus, chromosome aberrations, Assay Code: L51+, Evaluation Type: Evaluation A (Pre-1980)): active; positive

Structure (SMILES): CCN(CC)CCn1c2ccc(C)c3c2c([n+]1[O-])-c1ccc(Cl)cc1S3
- mutagenic call [4]: no conclusion

Structure (SMILES): O=[N+]([O-])c1ccc(/C=C/c2cccc(CO)n2)o1
- mutagenic call (Species/Cell Type: Human diploid fibroblasts, Assay Type: Unscheduled DNA synthesis (UDS) in vitro, DNA effects, Assay Code: UDH+, Evaluation Type: Evaluation A (Pre-1980)): active; positive
